Test results as given in PMC8219897 (Water Research X, 2021).
Converted amounts (≈) assume the structure as drawn. Read-outs that look alike come from different tables or passages of the source.

Tests used:
[1] = system: estrogen-related receptor; conditions: recombined yeast strains; ref Li et al. (2010); cited from earlier work
[2] = biological target: T1, human estrogen receptor alpha (ERα) (Homo sapiens, UniProt P03372); assay: Yeast estrogen screen; format: cell-based; conditions: for Estrogenic effects in single testing (in words): single compounds, Figure SI 5B
T1 sequence (P03372 1-595): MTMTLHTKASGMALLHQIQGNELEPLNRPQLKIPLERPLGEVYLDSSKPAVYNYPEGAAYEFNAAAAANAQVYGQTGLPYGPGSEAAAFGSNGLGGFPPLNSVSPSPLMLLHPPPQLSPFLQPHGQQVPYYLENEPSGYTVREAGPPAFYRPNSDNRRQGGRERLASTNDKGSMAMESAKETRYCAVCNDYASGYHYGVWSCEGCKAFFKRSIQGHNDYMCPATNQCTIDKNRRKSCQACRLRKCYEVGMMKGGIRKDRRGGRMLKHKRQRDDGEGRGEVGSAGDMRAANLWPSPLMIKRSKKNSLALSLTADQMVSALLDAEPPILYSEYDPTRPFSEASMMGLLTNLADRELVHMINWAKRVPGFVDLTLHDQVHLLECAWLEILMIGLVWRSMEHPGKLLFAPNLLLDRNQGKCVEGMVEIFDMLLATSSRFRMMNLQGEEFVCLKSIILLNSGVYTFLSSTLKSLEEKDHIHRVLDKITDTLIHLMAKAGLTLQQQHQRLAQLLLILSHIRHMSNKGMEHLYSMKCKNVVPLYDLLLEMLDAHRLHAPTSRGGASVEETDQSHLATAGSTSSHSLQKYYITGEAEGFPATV

aquatic life = conditions: proposed by ECHA; ref ECHA; cited from earlier work
[3] = muscle, liver and gill tissue of wild fish, Panlong River; ref Wang et al. 2016; cited from earlier work
Aliivibrio fischeri = format: cell-based; conditions: present study
P450 aromatase = conditions: JEG-3 cells, at 20 µM; ref Perez-Albaladejo et al. (2019); cited from earlier work
[4] = system: human placental JEG-3 cells; conditions: read-out: EC50, cytotoxic effects, ref Perez-Albaladejo et al. (2019); cited from earlier work
ERα = conditions: read-out: IC50, competitive binding to ERα; ref Nakagawa and Suzuki 2001; cited from earlier work
[5] = aqueous solution, pseudo-first-order kinetic; ref Kovacic et al. 2019; cited from earlier work
NIH3T3 cells = conditions: read-out: EC50, anti-androgenic effects, ref Kitamura et al. 2005; cited from earlier work
MCF-7 cells = conditions: read-out: EC50, estrogen-like effects, ref Kitamura et al. 2005; cited from earlier work
zebrafish embryos = conditions: ref McCormick et al. (2011); cited from earlier work
[6] = leachates of UV irradiated coating B

## CC(C)(C)c1ccccc1O [2-tert-butylphenol]
[1]
  Effect on estrogen-related receptor gamma: inverse agonistic effects

## Oc1ccccc1-c1ccccc1 [2PP, 2-phenylphenol]
[2]
  Estrogenic effects in single testing (in words): showed estrogenic potential

## CC(C)(c1ccccc1)c1ccc(O)cc1 [4CP, 4-cumylphenol]
Aquatic life
  Predicted no effect concentration (PNEC), freshwater: 14.2 µg/L
  Predicted no effect concentration (PNEC), freshwater sediments: 3.58 µg/g dry weight
[3]
  Bioconcentration factor (BCF): up to 10
Aliivibrio fischeri
  Potency compared to BPA in the luminescent bacteria assay: more potent
[2]
  EC50: 0.212 µM
[2]; [6]
  Mean contribution to estrogenicity of the quantified substances (toxic units): 1%
P450 aromatase
  Increase of P450 aromatase activity: 1.3 fold
[4]
  EC50: 65 µM

## CC(C)(c1ccc(O)cc1)c1ccc(O)cc1 [BPA, bisphenol A]
Aquatic life
  Predicted no effect concentration (PNEC), freshwater: 18 µg/L
  Predicted no effect concentration (PNEC), freshwater sediments: 1.2 µg/g dry weight
[2]; leachates of UV irradiated coating A
  Mean contribution to estrogenicity of the quantified substances (toxic units): 3%
[2]; [6]
  Mean contribution to estrogenicity of the quantified substances (toxic units): 16%
ERα
  IC50: 10 µM
[5]
  Half-life time of degradation under UV irradiation: about 6 h

## CC(C)(c1ccc(O)cc1)c1ccc(O)c(O)c1 [BPA-I10, 5-hydroxybisphenol A]
[2]; read-out: EC50, yeast estrogen screen, single compound, present results
  EC50: 31 µM
[2]; single compound, present results
  EC50, yeast estrogen screen: 7.5 µg/mL (≈ 30.7 µM)
[2]
  Estrogenic effects in single testing (in words): showed estrogenic potential
ERα
  IC50: 50 µM
NIH3T3 cells
  EC50: 14 µM
MCF-7 cells
  EC50: 1.8 µM

## COc1ccc(C(C)(C)c2ccc(O)cc2)cc1 [BPA-I11, 4-[1-(4-methoxyphenyl)-1-methylethyl]phenol]
Aliivibrio fischeri
  Potency compared to BPA in the luminescent bacteria assay: more potent
[2]
  EC50: 0.666 µM
[2]; [6]
  Mean contribution to estrogenicity of the quantified substances (toxic units): 2%
Zebrafish embryos
  Half maximal lethal concentration: up to 0.66 mg/l

## CC(C)(c1ccc(OCC(O)CO)cc1)c1ccc(OCC(O)CO)cc1 (stereo not drawn) [Bis-HPPP, bisphenol A bis(2,3-dihydroxypropyl) ether]
[2]
  Estrogenic effects in single testing (in words): not estrogenic
